These results are taken from article PMC10307035, “Antiviral activity of singlet oxygen-photogenerating perylene compounds against SARS-CoV-2: Interaction with the viral envelope and photodynamic virion inactivation” (Virus Research, 2023).

For data set [1], the system named is Vero cells. Put plainly: Cytotoxicity assay (Cell Counting Kit-8) in Vero cells. In kind it is cell-based, African Green Monkey. The settings on record: 10 µM, 48 h. On the procedure: To determine the overall cytotoxicity of the tested compounds, Vero cells were cultured for 24 h in 96-well plates to form a confluent monolayer, and then were treated with the tested compounds at concentrations of 2 and 10 µM. After 48 h of cultivation in the dark at 37 °C under 5% CO2, the cell culture medium was aspirated. The potential cytotoxicity of the tested perylene derivatives was determined based on cell viability using Cell Counting Kit-8 (Dojindo Molecular Technologies, Munich, Germany) according to the manufacturer's instructions. The cell viabilities of compound-treated Vero cells were compared with those of control DMSO-treated cells. We also used the above-described protocol to assess the cytotoxicity of the selected perylene antivirals, at concentrations ranging from 0 to 10 µM, in CaCo-2 and CRFK cells.
On the technique in general: Tetrazolium dyes change colour on reduction, which living cells bring about.

A short description of data set [2]: ROS generation rate / quantum yield, DPBF bleaching in methanol. In kind it is physicochemical. The settings on record: for φROS (ROS generation quantum yield): in methanol, DPBF trap, 450–470 nm illumination, riboflavin as reference. An excerpt: The ROS generation rate was estimated using the spectrophotometric method, based on the absorption changes of 1,3-diphenylisobenzofuran (DPBF, Sigma Aldrich, Germany) in methanol solution. Irreversible oxidation of DPBF by singlet oxygen results in peroxide formation, and DPBF bleaching. When light of 400–450 nm was used as actinic, DPBF bleaching occurred without any photosensitizer (PS) in solution. Therefore, to study photosensitized ROS generation, we used a white MCWHLP1 LED (Thorlabs, USA) with filters to limit the radiation to the 450–470 nm range (5.5 mW/cm^2).
Spectrophotometric measurements were performed in a Qpod 2e (Quantum Northwest, USA) thermostated cuvette holder at 25 °C with magnetic stirring (500 rpm). Absorption spectra were recorded using a MayaPro spectrophotometer (Ocean Optics, USA) and a stabilized white light source with a SLS201L tungsten lamp (Thorlabs, USA). Illumination was uniform over the entire volume of the cuvette, to prevent artifacts associated with the diffusion of non-reacted components into the illuminated volume of the cuvette. In this case, the rate of irreversible bleaching of DPBF (412 nm) was the same under both continuous and pulsed irradiation with equal total irradiation time. Illumination was performed in a pulsed mode (Fig. S5A), with 1 s of illumination followed by 5 s of dark adaptation, during which the absorption spectrum of the PS-DPBF solution was recorded. Data processing was performed as previously described ([Gvozdev et al., 2020]).

Data set [3] can be described thus: Fluorescence quantum yield determination. The data set is classed as physicochemical. The settings on record: in DMSO, relative to rhodamin B. On the procedure:
The samples’ steady-state fluorescence characteristics were measured in L-format using a Chronos DFD Fluorescence spectrometer (ISS, USA) equipped with a 300 W Cermax xenon arc lamp (ISS, USA), a concave holographic grating monochromator, and a PMT detector. The required amount of each sample was diluted in DMSO and measured in a 1-cm quartz cuvette at a constant temperature of 25 °C. The resulting data were evaluated using Vinci software (ISS, USA) and correlated to the utilized optical configuration.
Absorption spectra were measured using a high-performance Specord S 600 diode spectrophotometer (Jena Analyst, DE). The required amount of each sample was diluted in DMSO, added to 1-cm quartz cuvette, and measured within the selected absorbance spectrum range, against pure DMSO as a blank, at a constant temperature of 25 °C. The results were evaluated using WinASPECT® software (Jena Analyst, DE).
Fluorescence quantum yield was determined following a previously described protocol ([Kozma et al., 2005]; [Magde et al., 1999]; [Williams et al., 1983]). The kinetics of the incorporation of compounds into liposome membrane models was determined using steady-state fluorescence spectroscopy at a constant excitation and emission wavelength, according to the corresponding sample excitation and emission maxima. We added 50 μL of LNP suspension to 0.1 mM of the analyte in PBS, and monitored the increase of fluorescence intensity over the time range from 0 to 1400s. The preparation and characterization of the liposomal suspension is described in the supporting information (Fig. S4).
1. Supplementary material and methods
1.1. Fluorescence quantum yield (QY) determination
The steady-state fluorescence and absorption data were used for quantum yield determination. QY was determined relative to a reference compound, rhodamin B. Absorbance in the range of 0.01–0.1 was used to calculate the QY. We plotted two calibration curves of integrated emission fluorescence intensity as a function of sample absorbance. […]

Data set [4] is described as follows: Spectrofluorometric analysis of interaction with liposomes. The note with it: for penetration into liposomal membranes (in words): EPC/Chol 70/30 mol% liposomes. In kind it is physicochemical.
The nature of data set [5]: ROS generation measurement with DMA trap in DMSO. The note with it: 465–480 nm, 30 mW/cm^2, 10 min. In kind it is physicochemical. On the procedure:
ROS generation was also estimated using 9,10-dimethylanthracene (DMA), another specific fluorescent singlet oxygen trap, which forms nonfluorescent 9,10-dimethylanthracene endoperoxide after ROS-mediated DMA oxidation. Compounds (0, 0.1, 1, and 10 µM) in DMSO were mixed with DMA (0.5 µM), and these solutions were irradiated for 10 min at room temperature (RT) with light-emitting diodes (LED, 465–480 nm) having approximate power density of 30 mW/cm^2 (device description in Fig. S7). DMA fluorescence intensity was measured at ex/em wavelengths of 370/432 nm in the presence or absence of α-tocopherol (3 µg/mL) as an antioxidant. Singlet oxygen generation was accompanied by a decreased fluorescence signal of the DMA probe ([Zeng et al., 2020]).

The test system of another data set is SARS-CoV-2. Description: Photodynamic inactivation of SARS-CoV-2 virions. In kind it is cell-based. The note with it: 465–480 nm, 30 mW/cm^2, 10 min, then 60 min at 37 °C in the dark; plaque assay. On the procedure: Virus in DMEM (titer of 10^5 PFU/mL) was mixed with the compounds (0–10 µM) in a microtiter plate, in triplicate, and irradiated for 10 min at RT with LEDs (465–480 nm) having an approximate power density of 30 mW/cm^2 (device description in supplement). As a negative control, virus was incubated for 10 min in the dark at RT. Subsequently, both irradiated and non-irradiated virus samples were incubated in the dark at 37 °C for 60 min. All manipulation with the samples before and after this incubation, i.e., mixing the compound with the virus, pipetting into a microtiter plate, etc., were performed in daylight. Viral titers were determined by plaque assays (performed also in daylight) and expressed as PFU/mL, as previously described ([Stefanik et al., 2021]). To eliminate the influence of daylight on compound activity, the whole experiment, including all manipulation with samples, was performed in a dark room under red light. The virus sample was mixed with the indicated compounds at concentrations from 0 to 10 μM or 100 μM, incubated for 60 min at 37 °C and virus viability was evaluated using a plaque assay (Fig. 9A).

The subject of data set [6] is Vero cells. Put plainly: Light-induced cytotoxicity in Vero cells. The data set is classed as cell-based, African Green Monkey. The settings on record: 0–10 µM, 465–480 nm 10 min, then 24 h in the dark. On the procedure:
To determine the light-induced cytotoxicity of the tested compounds, Vero cells were cultured for 24 h in 96-well plates to form a confluent monolayer, and then were treated with the tested compounds at concentrations of 0 to 10 µM. Then, the compound-treated cells were irradiated for 10 min at RT with LEDs (465–480 nm) having an approximate power density of 30 mW/cm^2 (device description in Fig. S7). As a negative control, compound-treated cells were incubated for 10 min in the dark at RT. Subsequently, both irradiated and non-irradiated cell monolayers were incubated in the dark at 37 °C for 24 h. Then, the cell culture medium was aspirated and the potential cytotoxicity of the tested perylene derivatives was determined based on cell viability using Cell Counting Kit-8 (Dojindo Molecular Technologies, Munich, Germany) according to the manufacturer's instructions.

Details of data set [7]: method as in Magde et al., 1999. The settings on record: Water; λ = 514 nm; ref Magde et al., 1999; cited from earlier work.

For the compound `CN(C)c1ccc(C#Cc2ccc3c4cccc5cccc(c6cccc2c63)c54)cc1` [Compound 14], the “cell viability (in words)” value in the data set with Vero cells [1] is reported as “moderately decreased cell viability”. For the same compound, the “φROS (ROS generation quantum yield)” value in data set [2] turned out to be 7.1 ± 0.2%. For the same compound, the “photodynamic activity (DPBF trap, in words)” value in data set [2] (methanol, 450–470 nm) was “minimal”. Also, the fluorescence quantum yield in data set [3] was found to be 8%. Further, the “solubility in water (in words)” value in data set [4] is “poorly soluble in water”. In addition, the “penetration into liposomal membranes (in words)” value in data set [4] (10 µM in PBS) was “slow and very gradual”. Besides, in data set [4] (at 540 nm, 10 µM in PBS), the “fluorescence intensity after mixing with liposomes” value was 10^3 CPS. Besides, the “ROS generation, DMA trap, under blue light” value in data set [5] is reported as “minimal photodynamic activities”. Besides, the “antiviral activity after blue light irradiation of virus-compound mixture” value in the data set with SARS-CoV-2 is “viral titer decreased by less than an order of magnitude”. Besides, the “effect of blue light irradiation on cytotoxicity” value in the data set on Vero cells [6] is “no effect”.
As to `CCN(CC)c1ccc2c(-c3ccccc3C(=O)O)c3ccc(=[N+](CC)CC)cc-3oc2c1.[Cl-]` [rhodamin B], the “QYr (fluorescence quantum yield of reference)” value in data set [7] is on record as 31%.
In the case of `O=C(O)c1ccc(-c2ccc3c4cccc5cccc(c6cccc2c63)c54)s1` [Compound 16], the “φROS (ROS generation quantum yield)” value in data set [2] is 59.0 ± 1.8%. Moreover, the fluorescence quantum yield in data set [3] came to 61%. Further, the “penetration into liposomal membranes (in words)” value in data set [4] (10 µM in PBS) is “penetrated the liposomal membranes very quickly and efficiently”. For the same compound, the “steady-state fluorescence signal after mixing with liposomes” value in data set [4] (at 520 nm, after 1400 s, 10 µM in PBS) was “about 10^5 CPS”.
